What all share (test): inhibition of tumour cell growth, NCI panel, 48 h
Assay [1] has as its system HCC-2998 colon.
Assay [2] deals with CAKI-1 renal.
For assay [3], the system named is TK-10 renal.
In assay [4] the test system is COLO 205 colon.
Assay [5] has as its system KM12 colon.
Assay [6] deals with U251 CNS.
In assay [7] the test system is CCRF-CEM leukemia.
For assay [8], the system named is BT-549 breast.
Assay [9] relates to MCF7 breast.
The test system of assay [10] is HS 578T breast.

Each structure is given as a SMILES string.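 Compound exposure: 48 hours, 5 concentrations, 96-well plates. GI50: concentration for 50% inhibition of growth. TGI marks complete inhibition of growth.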

For the compound `CNCc1cc(OC)ccc1-c1ccc(OC)c(OC)c1OC`, the TGI in [1], in assay [2], in assay [3], in assay [4], in assay [5] and in [6] was above 100 µM in each case. For the same compound, the TGI in assay [7] is above 100 µM.

As for `CC(/C(=N\Nc1ccccc1)c1ccc(O)cc1)C1C(=O)Oc2ccccc21` (stereo not given), the TGI in [1], in assay [2], in assay [3], in [4], in assay [5] and in assay [6] was above 100 µM each time. In assay [7], this compound displayed a TGI above 100 µM.

In the case of `CCN1C(=O)N(CC)C2Nn3c(s/c(=C\c4ccccc4Br)c3=O)=NC21` (stereo not given), the GI50 is 2.4 µM in assay [1]; 3.2 µM in assay [8]; 1.75 µM in [2]; 9.34 µM in [3]; 0.501 µM in assay [5]; 1.78 µM in assay [9]. Further, the GI50 is 0.676 µM in assay [6] and 1.32 µM in assay [7]. Also, the TGI was 17.4 µM in assay [8]; 38.2 µM in assay [2]; above 100 µM in assay [3]; 6.13 µM in [5]; above 100 µM in [9]; 19.4 µM in assay [6]. This compound also yielded a TGI in [7] above 100 µM.

For `CCOC(=O)C1C2CCC(C2)C1(CCl)C(=O)OCC` (stereo not given), the TGI in [1], in assay [2], in [3], in [4], in assay [6] and in assay [7] was above 100 µM in each case.

`NNC(=O)CNC(=O)c1ccc(Cl)cc1Cl`: the TGI in assay [1], in assay [2], in [3], in [4], in assay [5] and in assay [6] was above 100 µM in each case. The compound further displayed a TGI in assay [7] above 100 µM.

In the case of `COC(=O)C(CC(C)C)NC(=O)NC12CC3CC(CC(F)(C3)C1)C2` (stereo not given), the TGI in assay [1], in assay [3], in [4], in [5], in assay [6] and in [7] was above 100 µM in each case.

Consider `COc1ccc(C(=O)c2cc(OC)c(OC)c(OC)c2)cc1/C=C/C(=O)c1ccc(OC)c(OC)c1`, for which the GI50 in [1] is 4.14 µM; in [2] it was 0.829 µM; in [3], 4.16 µM; in assay [4], 3.07 µM; in assay [5], 1.42 µM; in [9] it was 0.418 µM. In addition, the GI50 in assay [7] is 0.465 µM; in assay [10], 11.1 µM. The TGI in [1], in assay [2], in assay [3], in [4], in assay [5] and in assay [9] was above 100 µM throughout. Also, the TGI was 13.3 µM in [7] and above 100 µM in assay [10].

Consider `CCCCCCCCCCCCCC(=O)OCC1OC(n2cc(F)c(=O)[nH]c2=O)C(NC(=O)OCc2ccccc2)C(OC(=O)CCCCCCCCCCCCC)C1O` (stereo not given), for which the TGI in assay [1], in [2], in assay [3], in assay [4], in assay [5] and in [6] was above 100 µM throughout. In assay [7], this compound came in with a TGI above 100 µM.

As for `Cc1cccc2c1N(C(=O)/C=C\C(=O)O)C(c1c(C)[nH]c3ccccc13)C2` (stereo not given), the TGI in assay [1] is 33.9 µM; in assay [2], above 100 µM; in assay [3], above 100 µM; in assay [4], above 10 µM; in assay [5], above 100 µM; in assay [6], above 10 µM. For the same compound, the TGI in [7] worked out at 78.2 µM.

Consider `CC[P+](C)(C)c1ccccc1`, for which the TGI in assay [1], in [2], in [3], in assay [4], in assay [5] and in assay [6] was above 100 µM each time. In addition, the TGI in [7] is above 100 µM.

Regarding `COC(=O)/C(=N\Nc1nc(=S)[nH]n1N)C(C#N)c1ccccc1` (stereo not given), the TGI in assay [1], in assay [3], in assay [4], in assay [5], in [6] and in assay [7] was above 100 µM each time.

Turning to `CC1=NOC(=O)/C1=C/c1cccc2ccccc12`, the TGI in assay [1], in assay [2], in assay [3], in assay [4], in assay [5] and in [6] was above 100 µM throughout. The compound further came in with a TGI in [7] above 100 µM.

For the compound `Cc1ccc2ncnc(N(CC(C)C)CC(C)C)c2c1`, the GI50 in assay [1] was 16.2 µM; in assay [2], 12.8 µM; in assay [3], 19.4 µM; in assay [4], 16.9 µM; in [5], 16.4 µM; in assay [9], 21.5 µM. In addition, the results for the GI50 in [6], in assay [7] and in assay [10] were 16.5 µM, 6.55 µM and 17.4 µM, respectively. Moreover, the TGI in assay [1] is 35.7 µM; in assay [2], 26.6 µM; in assay [3] it was 37.5 µM; in assay [4], 39.1 µM; in assay [5], 40 µM; in [9], above 100 µM. Besides, the TGI in [6] is 33.3 µM; in assay [7], 41.7 µM; in assay [10], 44.3 µM.

As to `CC(=O)Nc1cc(N(CCOS(C)(=O)=O)CCOS(C)(=O)=O)ccc1N=O`, the TGI in assay [1], in [2], in [3], in [4], in [5] and in [6] was above 100 µM each time. The compound also came in with a TGI in assay [7] above 100 µM.

For `O=C(O)C[C@H]1CCCCC12CCOC2=O` (stereo not given in full), the TGI in [1], in [2], in assay [3], in [4], in assay [5] and in assay [6] was above 100 µM in each case. Besides, the TGI in assay [7] was above 100 µM.

The values above are taken from PubChem BioAssay (NCI).
